We go through 19 molecules from patent US10125123B2, “Small molecule IRE1-α inhibitors” (Cornell University, priority 2016, dated 2018).

Where only a bound is given, the exact number is not on record here.

For one assay, the target named is T1, IRE1α (Homo sapiens, UniProt O75460).
T1 construct: purchased SignalChem
T1 sequence (O75460 19-977): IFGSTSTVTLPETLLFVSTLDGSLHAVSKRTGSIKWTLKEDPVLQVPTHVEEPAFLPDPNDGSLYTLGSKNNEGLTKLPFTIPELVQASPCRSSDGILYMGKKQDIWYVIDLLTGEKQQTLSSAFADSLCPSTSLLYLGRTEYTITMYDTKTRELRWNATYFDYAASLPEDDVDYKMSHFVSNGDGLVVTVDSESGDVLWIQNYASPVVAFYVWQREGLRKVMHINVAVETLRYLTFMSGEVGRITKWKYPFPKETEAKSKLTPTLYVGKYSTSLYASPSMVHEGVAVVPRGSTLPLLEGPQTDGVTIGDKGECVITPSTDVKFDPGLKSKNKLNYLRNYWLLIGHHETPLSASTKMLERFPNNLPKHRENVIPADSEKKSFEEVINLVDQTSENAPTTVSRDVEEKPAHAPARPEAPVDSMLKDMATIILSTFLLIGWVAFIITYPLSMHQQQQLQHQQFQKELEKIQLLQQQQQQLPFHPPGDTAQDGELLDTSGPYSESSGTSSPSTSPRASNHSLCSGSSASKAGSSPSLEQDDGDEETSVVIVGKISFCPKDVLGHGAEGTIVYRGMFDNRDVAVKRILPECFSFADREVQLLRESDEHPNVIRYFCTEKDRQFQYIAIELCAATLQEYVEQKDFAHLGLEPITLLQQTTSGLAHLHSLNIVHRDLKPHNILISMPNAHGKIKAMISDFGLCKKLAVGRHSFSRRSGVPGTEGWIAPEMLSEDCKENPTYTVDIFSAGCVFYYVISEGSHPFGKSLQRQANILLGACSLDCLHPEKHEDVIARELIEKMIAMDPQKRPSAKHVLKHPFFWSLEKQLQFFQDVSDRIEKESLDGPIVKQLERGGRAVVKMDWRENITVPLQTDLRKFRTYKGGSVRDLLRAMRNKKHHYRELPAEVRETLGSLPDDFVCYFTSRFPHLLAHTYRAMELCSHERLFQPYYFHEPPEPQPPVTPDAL
The experiment in a line: In vitro FRET assay (XBP1 RNA probe cleavage by IRE1α). The following applies: biochemical FRET assay, 2 nM IRE1α. How it is done:
In vitro FRET assay was performed to evaluate the ability of select compounds to inhibit IRE1, the results of which are summarized in the following table.
To perform the in vitro FRET assay, 1× complete assay buffer (CAB; […], 50 mM sodium citrate pH 7.15, 1 mM magnesium acetate, 0.02% Tween 20) was used to dilute SignalChem IRE1α in protein to a final concentration of 2 nM. Selected compounds were serially diluted with DMSO in a non-binding black 384-well plate for a total of 15 μl in each well. 2 μl of the serially diluted compound or DMSO control were then added to new wells containing 98 μl of 1×CAB, for a total volume of 100 μl, 10 μl of which were then transferred to wells of a new plate. 5 μl of the diluted IRE1α was then added to each well. 5 μl of a […] XBP1 RNA probe was then added to each well. Fluorescence was then read over 30 minutes in kinetic mode (485/515 nm). Two RNA probes were used, XBP1 wildtype (CAUGUCCGCAGCACAUG; SEQ ID NO: 1) which is able to be spliced by active IRE1α or XBP1 mutant (CAUGUCCCCAGCACAUG; SEQ ID NO: 2) which is unable to be spliced. Each probe contained a 5′ 6-FAM modification and a 3′ IOWA Black FQ modification. […]
In general, EC50 refers to the concentration at which the effect is half-maximal. In turn, `CN1CCN(Cc2ccc(CC(=O)Nc3cc(-c4ccc5cc(N)ncc5c4)n(C)n3)cc2C(F)(F)F)CC1` [Compound 51, N-(5-(3-aminoisoquinolin-7-yl)-1-methyl-1H-pyrazol-3-yl)-2-(4-((4-methylpiperazin-1-yl)methyl)-3-(trifluoromethyl)phenyl)acetamide] gave an EC50 of 5 to 50 µM. Same read-out and setting: under `CN1CCN(Cc2ccc(NC(=O)Nc3cc(-c4ccc5ncnc(N)c5c4)n(C)n3)cc2C(F)(F)F)CC1` [Compound 28, 1-(5-(4-aminoquinazolin-6-yl)-1-methyl-1H-pyrazol-3-yl)-3-(4-((4-methylpiperazin-1-yl)methyl)-3-(trifluoromethyl)phenyl)urea] stands no more than 5 µM; under `Cn1nc(NS(=O)(=O)c2cccc(C(F)(F)F)c2)cc1-c1ccc2ccncc2c1` [Compound 72, N-(5-(isoquinolin-7-yl)-1-methyl-1H-pyrazol-3-yl)-3-(trifluoromethyl)benzene-sulfonamide], 50 to 100 µM. Turning to `Cc1nc(NC(=O)Nc2ccc(CN3CCN(C)CC3)c(C(F)(F)F)c2)n(C)c1-c1ccc2cc(N)ncc2c1` [Compound 50, 1-(5-(3-aminoisoquinolin-7-yl)-1,4-dimethyl-1H-imidazol-2-yl)-3-(4-((4-methylpiperazin-1-yl)methyl)-3-(trifluoromethyl)phenyl)urea], the EC50 lay within 5 to 50 µM. `Cn1nc(Nc2c(NC3CCCC3)c(=O)c2=O)cc1-c1ccc2nc(N)ncc2c1` [Compound 76, 3-((5-(2-aminoquinazolin-6-yl)-1-methyl-1H-pyrazol-3-yl)amino)-4-(cyclopentylamino)cyclobut-3-ene-1,2-dione] had an EC50 of 50 to 100 µM.

With `Cn1nc(NC(=O)c2cccc(-n3cccn3)c2)cc1-c1ccc2ccncc2c1` [Compound 20, N-(5-(isoquinolin-7-yl)-1-methyl-1H-pyrazol-3-yl)-3-(1H-pyrazol-1-yl)benzamide], the EC50 is greater than 100 µM.

Take `CN1CCN(Cc2ccc(C(=O)Nc3cc(-c4ccc5cc(N)ncc5c4)n(C)n3)c3ccccc23)CC1` [Compound 61, N-(5-(3-aminoisoquinolin-7-yl)-1-methyl-1H-pyrazol-3-yl)-4-((4-methylpiperazin-1-yl)methyl)-1-naphthamide]: the EC50 is greater than 100 µM. `CN1CCN(Cc2ccc(NC(=O)Nc3cc(-c4cccc5nccnc45)n(C)n3)cc2C(F)(F)F)CC1` [Compound 6] registered an EC50 greater than 100 µM. Take `CN1CCN(Cc2ccc(NC(=O)Nc3nn(C)c4cc(-c5cccnc5)ccc34)cc2C(F)(F)F)CC1` [Compound 1, 1-(1-methyl-6-(pyridin-3-yl)-1H-indazol-3-yl)-3-(4-((4-methylpiperazin-1-yl)methyl)-3-(trifluoromethyl)phenyl)urea]: the half-maximal effective concentration (EC50) was no more than 5 µM. As to `O=C(Nc1ccccc1)Nc1ccc2oc(-c3cccnc3)nc2c1` [Compound 56, 1-phenyl-3-(2-(pyridin-3-yl)benzo[d]oxazol-5-yl)urea], the EC50 is greater than 100 µM. `Cn1nc(NC(=O)Nc2ccccc2)cc1-c1ccc2ccncc2c1` [Compound 64, 1-(5-(isoquinolin-7-yl)-1-methyl-1H-pyrazol-3-yl)-3-phenylurea]: the EC50 was greater than 100 µM. As to `CN1CCN(Cc2ccc(NC(=O)Cc3cc(-c4ccc5ccncc5c4)n(C)n3)cc2C(F)(F)F)CC1` [Compound 31, 2-(5-(isoquinolin-7-yl)-1-methyl-1H-pyrazol-3-yl)-N-(4-((4-methylpiperazin-1-yl)methyl)-3-(trifluoromethyl)phenyl)acetamide], the EC50 lay in the range of 5 to 50 µM. Same read-out and setting: under `CN1CCC(Cc2ccc(NC(=O)Nc3cc(-c4ccc5cc(N)ncc5c4)n(C)n3)cc2C(F)(F)F)CC1` [Compound 48, 1-(5-(3-aminoisoquinolin-7-yl)-1-methyl-1H-pyrazol-3-yl)-3-(4-((1-methylpiperidin-4-yl)methyl)-3-(trifluoromethyl)phenyl)urea] stands 5 to 50 µM; under `CN1CCN(Cc2ccc(NC(=O)Nc3n[nH]c4cc(-c5cnc(N)nc5)ccc34)cc2C(F)(F)F)CC1` [Compound 11, 1-(6-(2-aminopyrimidin-5-yl)-1H indazol-3-yl)-3-(4-((4-methylpiperazin-1-yl)methyl)-3-(trifluoromethyl)phenyl)urea], 5 to 50 µM. `Cn1nc(NC(=O)Nc2ccc(CN3CCC(O)CC3)c(C(F)(F)F)c2)cc1-c1ccc2ccncc2c1` [Compound 41, 1-(4-((4-hydroxypiperidin-1-yl)methyl)-3-(trifluoromethyl)phenyl)-3-(5-(isoquinolin-7-yl)-1-methyl-1H-pyrazol-3-yl)urea] had an EC50 greater than 100 µM. `O=C(C#Cc1ccccc1)Nc1ccc2oc(-c3cccnc3)nc2c1` [Compound 58, 3-phenyl-N-(2-(pyridin-3-yl)benzo[d]oxazol-5-yl)propiolamide]: the EC50 was greater than 100 µM. The molecule `CN1COc2cc(NC(=O)Nc3cc(-c4ccc5ccncc5c4)n(C)n3)ccc2C1` [Compound 62, 1-(5-(isoquinolin-7-yl)-1-methyl-1H-pyrazol-3-yl)-3-(3-methyl-3,4-dihydro-2H-benzo[e][1,3]oxazin-7-yl)urea] returned an EC50 greater than 100 µM.

The next assay has as its system myeloid dendritic cells. The experiment in a line: Lipid accumulation in dendritic cells exposed to ovarian cancer ascites supernatants (BODIPY 493/503 staining, flow cytometry). Format: cell-based, mouse.
Conditions: not given
As for vitamin E, the “pathological intracellular lipid accumulation” value was “suppressed”.

The target in another assay is IRE1α kinase and endoribonuclease domains (Homo sapiens, UniProt O75460).
Chain of IRE1α kinase and endoribonuclease domains (O75460 19-977): as above
Test: not given
The settings on record: cited from earlier work.
Turning to `CC(C)n1nc(-c2ccc(NC(=O)Nc3cccc(C(F)(F)F)c3)cc2)c2c(N)ncnc21` [SRC inhibitor, 1-(4-(4-Amino-1-isopropyl-1H-pyrazolo[3,4-d]pyrimidin-3-yl)phenyl)-3-(3-(trifluoromethyl)phenyl)urea], the “inhibition of IRE1α kinase and endoribonuclease domains” value was “inhibits”.
